Laboratory results taken from article PMC4791643, “Reconstruction of diaminopimelic acid biosynthesis allows characterisation of Mycobacterium tuberculosis N-succinyl-L,L-diaminopimelic acid desuccinylase” (Scientific Reports, 2016).

Target: T1, MtDapE (Mycobacterium tuberculosis, UniProt P9WHS9)
T1 construct: gene dapE
Assay: inhibition in coupled assay, preincubated with inhibitor, NADPH at […] nm
Format: biochemical
Conditions: for inhibition at 1000 µM: read-out: % inhibition at 1 mM

T1 sequence (P9WHS9 whole entry, looked up): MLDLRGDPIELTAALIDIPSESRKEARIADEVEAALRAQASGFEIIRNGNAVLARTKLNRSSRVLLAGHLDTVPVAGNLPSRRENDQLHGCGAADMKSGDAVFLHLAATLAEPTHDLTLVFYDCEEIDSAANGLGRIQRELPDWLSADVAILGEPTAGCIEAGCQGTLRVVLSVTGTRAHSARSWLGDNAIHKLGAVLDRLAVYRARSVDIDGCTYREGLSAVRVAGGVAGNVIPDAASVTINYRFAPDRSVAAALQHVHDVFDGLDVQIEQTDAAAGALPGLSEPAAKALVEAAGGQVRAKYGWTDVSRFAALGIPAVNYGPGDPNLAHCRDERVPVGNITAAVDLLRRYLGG

OB(O)c1cccs1 [2-thiopheneboronic acid]
inhibition at 10000 µM (read-out: % inhibition at 10 mM): 22.3%

CC(C)(S)[C@H](N)C(=O)O [L-penicillamine]
inhibition at 1000 µM: 79.4%

C[C@H](CS)C(=O)N1CCC[C@H]1C(=O)O [L-captopril]
inhibition at 1000 µM: 23.3%
